pEC50: −log10 of the molar value. Values after ≈ are worked out from the molar mass of the structure shown. Where two headings read alike, the source gives them in different places. Non-standard residues stand in square brackets, D forms with d. Residues, ends and D or L forms follow the SMILES beside them. *: point of attachment. Leu(ol) = CC(C)C[C@H](N)CO; Octanoyl = CCCCCCCC(=O)*; Aib = CC(C)(N)C(=O)O
Legend:
[1] = test system: P. aeruginosa ATCC 25668; details: after 24 h; ±SE; § data for comparison; ref [6]; cited from earlier work
Protocol: Table 2 MICs (μM±SE; N≥4; peptides dose range: 0–64 µM) after 24 h against two Gram^+ and two Gram^− bacterial strains (§ indicates data from for comparison). | column: P. aeruginosa

[2] = test system: E. coli ATCC 25922; details: after 24 h; ±SE; § data for comparison; ref [6]; cited from earlier work
Protocol: Table 2 MICs (μM±SE; N≥4; peptides dose range: 0–64 µM) after 24 h against two Gram^+ and two Gram^− bacterial strains (§ indicates data from for comparison). | column: E. coli

[3] = test system: S. epidermidis ATCC 700565; details: after 24 h; ±SE; § data for comparison; ref [6]; cited from earlier work
Protocol: Table 2 MICs (μM±SE; N≥4; peptides dose range: 0–64 µM) after 24 h against two Gram^+ and two Gram^− bacterial strains (§ indicates data from for comparison). | column: S. epidermis

[4] = test system: Erythrocytes; assay: Hemolytic activity (hemoglobin release); type: cell-based; details: erythrocytes treated 24 h, hemoglobin release read spectrophotometrically; in words
Protocol: Fig. 7 Hemolytic activity of trichogin and its analogs. Erythrocytes were treated for 24 h with different concentration of peptides, centrifuged and hemoglobin release was measured spectrophotometrically. Hemolysis is expressed as percentage relative to positive control (erythrocytes treated with distilled water). § Indicates data from for comparison.

[5] = test system: Gram^− and Gram^+ bacteria; details: both Gram^− and Gram^+ bacteria; ref Tavano et al., 2015 [6]; cited from earlier work
Text: (§1) Peptaibiotics are a group of membrane active peptides of fungal origin. They typically contain α-aminoisobutyric acid (Aib; 1-letter code, U) and other non-coded residues (Toniolo and Brückner, 2009; Neumann et al., 2015; Benedett et al., 1982), [2], [3] stabilizing their helical structure. Peptaibols are peptaibiotics carrying a 1, 2-aminoalcohol at the C-terminus. When a fatty acid chain (of 8–10 carbon atoms) is present at their N-terminus, they are called lipopeptaibols (Toniolo et al., 2001; Degenkolb et al., 2003), [5]. We found (Tavano et al., 2015) that the lipo ...

[6] = test system: human cells (lymphocytes, PMNs, monocytes, HL60, HeLa, A431, A549, CCD34Lu); details: tumor and healthy human cells; ref Tavano et al., 2015 [6]; read-out: EC50 for killing tumor and healthy human cells; cited from earlier work
Text: as §1

[7] = test system: S. aureus, ATCC BAA-44 (methicillin-resistant strain); details: after 24 h; ±SE; § data for comparison; ref [6]; cited from earlier work
Protocol: Table 2 MICs (μM±SE; N≥4; peptides dose range: 0–64 µM) after 24 h against two Gram^+ and two Gram^− bacterial strains (§ indicates data from for comparison). | column: S. aureus

[8] = test system: P. aeruginosa ATCC 25668; type: cell-based, Pseudomonas aeruginosa; details: after 24 h at 37 °C, broth microdilution in LB, 5×10^5 CFU/ml; ±SE, N≥4; peptide dose range 0–64 µM
Protocol: (§2) E. coli ATCC 25922, the methicillin-resistant strain of S. aureus, ATCC BAA-44, P. aeruginosa ATCC 25668 and S. epidermidis ATCC 700565 was a kind gift of Prof. Elena Reddi (Dept. of Biology, University of Padova, Italy). Cultures were maintained in Luria Bertani (LB) agar. MICs (Minimal inhibitory concentrations) of the peptides were determined using the broth microdilution method. Two-fold serial dilutions of each peptide, from 1 to 64 μM, were prepared in LB and 50 μl per well were arranged in sterile 96-well plates (Falcon). Then, an aliquot of bacterial cell suspension was added to each well, at a final concentration of 5×10^5 CFU/ml.

[9] = test system: S. aureus, ATCC BAA-44 (methicillin-resistant strain); type: cell-based, Staphylococcus aureus; details: after 24 h at 37 °C, broth microdilution in LB, 5×10^5 CFU/ml; ±SE, N≥4; peptide dose range 0–64 µM
Protocol: as §2

[10] = test system: human cells (lymphocytes, PMNs, monocytes, HL60, HeLa, A431, A549, CCD34Lu); assay: Cytotoxicity on human cells, MTS reduction and LDH release; type: cell-based; details: 24 h, MTS/LDH EC50, all tested cells; in words
Protocol: To monitor the possible differential cytocidal effect of trichogin and its analogs on human cells (healthy and cancer cells, non-leukocytes and leukocytes), we incubated the peptides with (i) primary human leukocytes (lymphocytes, PMNs and monocytes), freshly isolated from blood of healthy donors (ii) the monocytes-like HL60 cell line from human myeloid leukemia, and (iii) three tumor-derived non-leukocyte cells lines: HeLa ([…]), A431 (human epidermoid carcinoma) and A549 (human lung carcinoma) and the in vitro stabilized line CCD34Lu (from human normal lung).
HeLa, A431 and CCD34-Lu cells were maintained in DMEM medium (Gibco), A549 in F12 medium (Gibco) and HL60 in RPMI medium (Gibco), supplemented with 10% FCS (Euroclone) and antibiotics (penicillin and streptomycin, 100 U/ml, Invitrogen) at 37 °C in a humidified atmosphere containing 5% (v/v) CO2; cells were split every 2–3 days. Human monocytes, polymorphonuclear leukocytes (PMNs) and lymphocytes were purified from buffy coats of healthy donors, kindly provided by the Centro Immunotrasfusionale, Hospital of Padova. Briefly, for monocyte purification, peripheral blood mononuclear cells (PBMC) were isolated from buffy coats of healthy donors by density gradient centrifugation on Ficoll-Paque Plus (GE Health care), which density is optimized for the isolation of mononuclear cells. Separate monocyte and T-cell fractions were obtained from PBMCs by Percoll density gradient centrifugation (GE Health care); residual lymphocytes were removed by incubation in 2% fetal calf serum (FCS) RPMI at 37 °C and subsequently washed to eliminate non adherent cells. Unless otherwise specified, cells were kept at 37 °C in a humidified atmosphere containing 5% (v/v) CO2 in RPMI-1640 supplemented with 10% FCS. For PMNs purification, the pellet of cells obtained after the centrifugation on Ficoll gradient was subjected to dextran erythrocytes precipitation; residual erythrocytes were removed by hypotonic lysis in 155 mM NH4Cl, 10 mM KHCO3, and […] Na2EDTA at pH 7.4 and cells were cultured in RPMI medium, supplemented with 10% FCS. For lymphocytes preparation, buffy coats were incubated with 50 μl/ml of Rosette Sep® Human T Cell Enrichment Cocktail (StemCell Technologies). Blood was then centrifuged over a Ficoll gradient and cells were cultured in RPMI medium, supplemented with 10% FCS.
(§3) Twenty-four hours before the experiment, A431, HeLa, A549 and CC34-Lu cells were detached by means of trypsin treatment (Gibco), counted and seeded onto a 96 wells/plate (8×10^3 cells/well, Falcon). After purification, monocytes were seeded onto a 96 wells/plate (2×10^6/well) and left to adhere to the plastic; then cells were immediately treated with stimuli. PMNs and lymphocytes (2×10^6 cells/well) and HL60 cells (40×10^3) were seeded onto cell plates and subsequently treated. Different peptides were diluted in culture medium (from 20 μM to 1 μM) and added to the cells. As a […] control cells were treated with medium without stimuli. Twenty-four hours after treatment, the cell supernatant was collected for subsequent assay (LDH assay) and cells were tested using a CellTiter 96® AQueous One Solution Reagent (Promega). Plates were read with an ELISA reader (Amersham Biosciences) at 492 nm. Data were expressed as % of absorbance value compared to untreated cells (assumed as 100% viable). Alternatively, the EC50 (the concentration of drug where 50% of cells died) was calculated for each peptide and each kind of tested cell.
(§4) 50 μl of the cell supernatant was tested with a CytoTox 96® Non-Radioactive Cytotoxicity Assay kit (Promega). EC50 (the concentration of drug that induced the lysis of 50% of the total cell number) was calculated for each peptide and each kind of tested cell.

[11] = test system: E. coli ATCC 25922; type: cell-based, Escherichia coli; details: after 24 h at 37 °C, broth microdilution in LB, 5×10^5 CFU/ml; ±SE, N≥4; peptide dose range 0–64 µM
Protocol: as §2

[12] = test system: S. epidermidis ATCC 700565; type: cell-based, Staphylococcus epidermidis; details: after 24 h at 37 °C, broth microdilution in LB, 5×10^5 CFU/ml; ±SE, N≥4; peptide dose range 0–64 µM
Protocol: as §2

[13] = test system: HeLa cells; assay: Propidium iodide / Annexin V assay (FACS); type: cell-based, human; details: 18 h treatment, up to 20 μM, in words
Protocol: HeLa cells were seeded on 24-wells plastic trays (Falcon) the day before the experiment, while HL60 were used directly. Cells were treated for 18 h with different trichogin analogs (up to 20 μM); then they were washed with PBS, detached with trypsin (in the case of HeLa cells), centrifuged at 200g for 5 min, suspended in 50 μl of incubation buffer and incubated for 15 min at 37 °C with 2 μl of Annexin-V-Fluos (Roche). Cells were finally diluted in 250 μl of the incubation buffer and 15 μl of Propidium Iodide (Sigma) were added to each sample just before the acquisition with FACSCanto® (Beckton Dickinson). Percentage of healthy (Annexin V^−/PI^−), apoptotic (Annexin V^+/PI^−), oncotic (Annexin V^−/PI^+) and late apoptotic/abortive oncotic (Annexin V^+/PI^+) cells of the total (10^6 cells) was calculated using FACSDiva Software.

[14] = test system: HeLa cells; assay: Cytotoxicity on HeLa cells, MTS/LDH; type: cell-based, human; details: 24 h, in words
Protocol: as §3, §4

[15] = test system: Gram^− and Gram^+ bacteria; assay: Antibacterial activity, all strains taken together; type: cell-based; details: additional U at position 6 or U1 replaced with L; in words
Protocol: as §2

Compound	MIC P. aeruginosa [1] [µM]	MIC E. coli [2] [µM]	MIC S. epidermis [3] [µM]	hemolytic effect [4]	antibacterial effects (none up to the stated concentration) [5] [µM]	pEC50 [6]	MIC S. aureus [7] [µM]	MIC P. aeruginosa [8] [µM]	MIC S. aureus [9] [µM]	cytotoxicity compared with trichogin or the corresponding analog [10]	MIC E. coli [11] [µM]	MIC S. epidermis [12] [µM]	type and extent of HeLa cell death, PI/Annexin V labeling [13]	toxicity to HeLa cells compared with trichogin [14]	antibacterial activity compared with the K-containing analogs [15]
Oc-UGLUGGLUGILol [GA IV, trichogin GA IV, lipopeptaibol trichogin, Oc-UGLUGGLUGILol]	>64	>64	>64	weakly hemolytic	> 64	5.30 to 5.40	>64								
CCCCCCCC(=O)N[C@@H](CC(C)C)C(=O)NCC(=O)N[C@@H](CC(C)C)C(=O)NC(C)(C)C(=O)NCC(=O)NCC(=O)N[C@@H](CC(C)C)C(=O)NC(C)(C)C(=O)NCC(=O)N[C@H](C(=O)N[C@H](CO)CC(C)C)[C@@H](C)CC [L1] (Octanoyl-LGL[Aib]GGL[Aib]GI[Leu(ol)])								>64	32 ± 0 (≈ 35 µg/mL)	weakly affected	>64	>64	as effective as trichogin in killing HeLa cells		
CCCCCCCC(=O)NC(C)(C)C(=O)NCC(=O)N[C@@H](CC(C)C)C(=O)NC(C)(C)C(=O)N[C@@H](CCCCN)C(=O)NC(C)(C)C(=O)N[C@@H](CC(C)C)C(=O)NC(C)(C)C(=O)NCC(=O)N[C@H](C(=O)N[C@H](CO)CC(C)C)[C@@H](C)CC [K5U6] (Octanoyl-[Aib]GL[Aib]K[Aib]L[Aib]GI[Leu(ol)])								>64	3.8 ± 2.4 (≈ 4.43 µg/mL)	increased cytotoxicity	>64	2.4 ± 0.9 (≈ 2.8 µg/mL)	predominantly a late apoptotic phenotype but also significant necrosis	significantly more effective in killing HeLa cells	failed to increase the antibacterial activity
